Results as given in patent US5068183A, “Method for measurement of α-amylase activity” (Kurita Water Industries, Ltd., priority 1986, dated 1991).

What was measured:
α-amylase [1] = experiment: Measurement of α-amylase activity with Reagent II (substrate, α-glucosidase, inositol dehydrogenase, NAD); type: biochemical; conditions: substrate 1 mmol/l; sample serum containing 55 mU/ml and 220 mU/ml; 37° C., 10 minutes; linear after 4 minutes
Method: On the other hand, in the case of using the malto-oligo saccharide represented by general formula (V), when the substrate and glucosidase as a coupled enzyme are added to a sample such as a body fluid or the like, the reaction proceeds as shown below (hereinafter G5 I represented by general formula (VI) is used as a specific example of general formula (V)). [drawing 8]
The thus liberated inositol or derivatives thereof are reacted with inositol dehydrogenase (IDH) in the presence of NAD thereby to produce NADH; by the change in absorbancy, the amount of inositol can be determined. [drawing 9]
Reagent II was prepared by the following formulation.
(§1) 1 mmol/l (final concentration)
(§2) 25 U/ml (final concentration)
40 U/ml (final concentration
NAD 40 mmol/l (final concentration)
(§3) 100 mmol/l (final concentration)
To 800 μl of Reagent II described above was added 100 μl of a sample serum containing 55 mU/ml and 220 mU/ml, respectively. While incubating at 37° C. for 10 minutes, change in absorbancy was measured at 340 nm.
Measurement was performed in a similar manner as in Example 5 except that 100 mg/ml of glucose was further added to each sample serum.

α-amylase [2] = experiment: Measurement of α-amylase activity with Reagent I (substrate, α-glucosidase, mannitol dehydrogenase, NADH); type: biochemical; conditions: substrate 1 mmol/l; sample serum containing 90 mU/ml and 270 mU/ml; 37° C., 10 minutes; linear after 6 minutes
Method: When the substrate and glucosidase as a coupled enzyme are added to a sample such as a body fluid or the like, the reaction proceeds as shown below in the case of the malto-oligo saccharide represented by general formula (I) (hereinafter MeG5 F represented by general formula (IV) is used as a specific example of general formula (I)). [drawing 6]
The thus liberated monosaccharides such as fructose or the like and derivatives thereof are reacted with, for example, mannitol dehydrogenase (MDH) or sorbitol dehydrogenase (SDH) in the presence of NADH thereby to produce […]; by the change in absorbancy, the amount of fructose can be determined. [drawing 7]
Reagent I was prepared by the following formulation.
as §1, §2
40 U/ml (final concentration)
NADH 0.16 mmol/l (final concentration)
as §3
100 mmol/1 (final concentration) To 800 μl of Reagent I described above was added 100 μl of a sample serum containing 90 mU/ml and 270 mU/ml, respectively. While incubating at 37° C. for 10 minutes, change in absorbancy was measured at 340 nm.
Measurement was performed in a similar manner except that 100 mg/ml of glucose was further added to each sample serum.

Row | SMILES | change in absorbancy at 340 nm (FIG. 2) (α-amylase [1]) | change in absorbancy at 340 nm (FIG. 1) (α-amylase [2])
1 | OC[C@H]1O[C@H](O[C@H]2[C@H](O)[C@@H](O)[C@@H](O[C@H]3[C@H](O)[C@@H](O)[C@@H](O[C@H]4[C@H](O)[C@@H](O)[C@@H](O[C@H]5[C@H](O)[C@@H](O)[C@@H](OC6C(O)C(O)C(O)C(O)C6O)O[C@@H]5CO)O[C@@H]4CO)O[C@@H]3CO)O[C@@H]2CO)[C@H](O)[C@@H](O)[C@@H]1O (some centres unmarked) [G5 I] | good linear relationship was obtained in any concentration after 4 minutes | 
2 | COC[C@H]1O[C@H](O[C@H]2[C@H](O)[C@@H](O)[C@@H](O[C@H]3[C@H](O)[C@@H](O)[C@@H](O[C@H]4[C@H](O)[C@@H](O)[C@@H](O[C@H]5[C@H](O)[C@@H](O)[C@@H](O[C@]6(CO)O[C@H](CO)[C@@H](O)[C@@H]6O)O[C@@H]5CO)O[C@@H]4CO)O[C@@H]3CO)O[C@@H]2CO)[C@H](O)[C@@H](O)[C@@H]1OC [MeG5 F] |  | good linear relationship was obtained in any concentration after 6 minutes
